Experimental data: patent US8420311B2, “Method to block the infection by flaviviruses, molecules and uses” (Centro de Ingenieria Genetica y Biotecnologia, priority 2006, dated 2013)
Bridges are numbered along the chain shown (N, C = ends). Where no end group is shown, it is not given here.

Tests used:
mAb 3H5 = experiment: Recognition by mAb 3H5 in Western blotting / dot blotting; assay type: binding; settings: signal lost upon reduction and carbamidomethylation
Text: FIG. 12. (A) Sequence of the peptides designed to mimic different regions on the surface of DIII. The residue numbering corresponds to the sequence for protein E of DV serotype 2, strain Jamaica 1409, available from the Swiss-Prot databank with access number P07564. The underlined residues are not present in protein E and were introduced during design. The cysteine residues are used to restrict the structural mobility of the peptide by a disulphide bridge. (B) Recognition of the HDIII2Cs peptide by the neutralizing antibody 3H5 in a Western blotting assay. 50 μg of the BSA-peptide conjugates and 20 μg of the recombinant protein PD5 were electrophoresed on a 12.5% SDS-PAGE gel and transferred to a nitrocellulose membrane. After blocking, the membrane was incubated with a dilution (30 μg/mL) of the 3H5 mAb for 2 hours at 25° C. The bound antibody was detected with an anti-mouse IgG-peroxidase conjugate, and the blots were developed using chemiluminescence. (C) Two pieces of nitrocellulose membrane were sensitized in parallel with 10 μg of each variant of the protein and of the peptides. […]
With the aim of evaluating the recognition of peptide HDIII2Cs by mAb 3H5, peptide-BSA conjugates were prepared and analyzed by Western blotting with this antibody (FIG. 12B). […]

DV4 = assay type: cell-based, dengue virus; settings: peptides 0.1 mg/ml; Vero cells
Text: (§1) DIII has one of the most variable regions of the exposed surface of protein E. In fact, one of the antigenic characteristics of this domain is that the antibodies obtained against this region are predominantly serotype-specific (Roehrig J T, Bolin R A, Kelly R G (1998) Monoclonal antibody mapping of the envelope glycoprotein of the dengue 2 virus, Jamaica Virology 246:317-28). However, during the inhibition assay with different DV serotypes, the peptides display a wide-spectrum inhibitory activity, efficiently inhibiting the infection of strains of the homologous, as well as of the heterologous serotypes (table 3). It is important to notice that at the assayed concentration (0.1 mg/ml) all the peptides in all the conditions, with the exception of peptide HIII4CL for DV3, produced higher than 50% inhibition levels.

DV3 = assay type: cell-based, dengue virus; settings: peptides 0.1 mg/ml; Vero cells
Text: as §1

DV1 = assay type: cell-based, dengue virus; settings: peptides 0.1 mg/ml; Vero cells
Description: (§2) FIG. 17. Inhibition of the infection of Vero cells with DV1 and DV2. (A) Six-well plates with a monolayer at approximately 90% confluence were incubated for 30 min. at 37° C. with dilutions of the peptides in MEM medium. A dilution of either DV1 strain West Pac 74 or DV2 strain S16803 was then added, calculated so as to obtain an average of 100 lytic plaques per well, and the plates were incubated for 30 min. at 37° C. with the virus/peptide mixture. After the incubation the cells were washed twice, received the addition of MEM medium supplemented with non-essential amino acids, 1% fetal calf serum, 1% CMC, and finally were incubated for 5 days at 37° C. under a CO2 atmosphere. (B) Inhibitory effect of the peptides at 100 μMol/L. NRpep: Non-related peptide. Data on the sequence of the peptides 3H5pept (SEQ ID. 27), pepDIII-1 (SEQ ID. 28), HIII2CL (SEQ ID. 5) and HIII3CL (SEQ ID. 7), as well as on the region they span on DIII from DV, can be obtained from FIG. 11. The calculation of the inhibition percentages is described in Materials and Methods. (C) Inhibition of DV2 infection by using varying peptide concentrations. The viral plaques were visualized by staining with Naphtol Blue Black. Cell control: Untreated cells. Virus control: Cells incubated with the virus, but without peptide.
as §1

DV2 = assay type: cell-based, dengue virus; settings: peptides 0.1 mg/ml; Vero cells
Description: as §2, §1

A2MR receptor = experiment: Effect of peptides on the binding of fluoresceinated A2M and RAPR13 to Vero cells (flow cytometry); assay type: cell-based, monkey; settings: increasing peptide concentrations (FIG. 19)
Description: FIG. 19. Effect produced on the binding of A2M and RAPR13 to the surface of Vero cells by simultaneous incubation with the peptides. The fluoresceinated A2M and RAP13 proteins were incubated for 30 min. at 4° C. with pre-fixed Vero cells in the presence of varying concentrations of HIII2CL and 3H5pept in order to reach the indicated molar peptide/protein ratios. The binding of the labeled ligands was detected by flow cytometry.
In order to obtain a direct evidence of the interaction with the A2MR receptor, the effect of one of the designed peptides on the binding of the natural ligands of A2MR to Vero cells was investigated. The assay was performed with fluoresceinated A2M and RAPR13, measuring their binding to Vero cells in the presence of increasing concentrations of the HDIII2CL peptide. The amount of protein bound to the cells was estimated by flow cytometry, using recombinant human EGF (rhEGF) as a negative control for the experiment, since it is known that Vero cells express the EGF receptor in their surface (Copp J, Wiley S, Ward M W, van der Geer P (2005) Hypertonic shock inhibits growth factor receptor signaling, induces caspase-3 activation, and causes reversible fragmentation of the mitochondrial network. Am J Physiol Cell Physiol. 288:C403-15).

DV = experiment: Inhibition of the infection of Vero cells with DV by pre-incubation of the virus with A2M; assay type: cell-based, dengue virus; settings: incubation times with virus longer than 30 minutes (FIG. 20B)
Description: FIG. 20. Inhibition of the infection of Vero cells with DV by pre-incubation with A2M. Viral preparations were incubated 1 h at 25° C. (A and C) or the indicated time (B) with the proteins i. e. activated A2M (A2Mact), non-activated A2M (A2M no act) and a non-related protein (NR). The mixtures of the proteins with the virus were added to monolayers of Vero cells and incubated for 1 h at 37° C. The cell monolayers were washed to eliminate non-bound virus. Next, medium MEM supplemented with non-essential amino acids and 1% FBS, 1% CMC was added and the cells were incubated for 5 days at 37° C. in a CO2 incubator. To visualize the viral plaques, Vero cells were stained using Naphtol Blue Black. All experimental points were performed on duplicates.
To obtain further evidences of the interaction of DV with A2M, the two variants of the protein i.e. activated and non-activated were used in assays of inhibition of infection of Vero cells. The viral preparation was incubated with solutions of activated A2M of higher concentrations than the physiological concentrations reached by this variant of the protein. Solutions of equimolar concentration of non-activated A2M and a non-related protein were used as negative controls. […]

| Molecule | recognition by mAb 3H5 (mAb 3H5) | degree of reduction of the number of viral plaques, DV4 (DV4) | degree of reduction of the number of viral plaques, DV3 (DV3) | degree of reduction of the number of viral plaques, DV1 (DV1) | degree of reduction of the number of viral plaques, DV2 (DV2) | amount of surface-bound RAPR13 (A2MR receptor) | increase of viral infection (DV) |
| --- | --- | --- | --- | --- | --- | --- | --- |
| HDIII2Cs: cyclic peptide corresponding to Ile379-Lys388 from protein E of DV2, Seq. ID. 4 (CIIGVEPGQLKC-NH2; disulfide 1-12) | recognized by mAb 3H5 | − (Less than 10% decrease in the number of plaques) | − (Less than 10% decrease in the number of plaques) | − (Less than 10% decrease in the number of plaques) | − (Less than 10% decrease in the number of plaques) |  |  |
| 3H5pept: peptide reported in the literature as part of the epitope recognized by mAb 3H5, SEQ ID. 27 (KAQLKLNWFKKGSS) [Peptide 3H5pept, reference compound] |  | − (Less than 10% decrease in the number of plaques) | − (Less than 10% decrease in the number of plaques) | − (Less than 10% decrease in the number of plaques) | − (Less than 10% decrease in the number of plaques) | does not produce variations |  |
| non-activated A2M: non-activated variant of purified human A2M (protein) SVSGKPQYMVLVPSLLHTETTEKGCVLLSYLNETVTVSASLESVRGNRSLFTDLEAENDVLHCVAFAVPKSSSNEEVMFLTVQVKGPTQEFKKRTTVMVKNEDSLVFVQTDKSIYKPGQTVKFRVVSMDENFHPLNELIPLVYIQDPKGNRIAQWQSFQLEGGLKQFSFPLSSEPFQGSYKVVVQKKSGGRTEHPFTVEEFVLPKFEVQVTVPKIITILEEEMNVSVCGLYTYGKPVPGHVTVSICRKYSDASDCHGEDSQAFCEKFSGQLNSHGCFYQQVKTKVFQLKRKEYEMKLHTEAQIQEEGTVVELTGRQSSEITRTITKLSFVKVDSHFRQGIPFFGQVRLVDGKGVPIPNKVIFIRGNEANYYSNATTDEHGLVQFSINTTNVMGTSLTVRVNYKDRSPCYGYQWVSEEHEEAHHTAYLVFSPSKSFVHLEPMSHELPCGHTQTVQAHYILNGGTLLGLKKLSFYYLIMAKGGIVRTGTHGLLVKQEDMKGHFSISIPVKSDIAPVARLLIYAVLPTGDVIGDSAKYDVENCLANKVDLSFSPSQSLPASHAHLRVTAAPQSVCALRAVDQSVLLMKPDAELSASSVYNLLPEKDLTGFPGPLNDQDDEDCINRHNVYINGITYTPVSSTNEKDMYSFLEDMGLKAFTNSKIRKPKMCPQLQQYEMHGPEGLRVGFYESDVMGRGHARLVHVEEPHTETVRKYFPETWIWDLVVVNSAGVAEVGVTVPDTITEWKAGAFCLSEDAGLGISSTASLRAFQPFFVELTMPYSVIRGEAFTLKATVLNYLPKCIRVSVQLEASPAFLAVPVEKEQAPHCICANGRQTVSWAVTPKSLGNVNFTVSAEALESQELCGTEVPSVPEHGRKDTVIKPLLVEPEGLEKETTFNSLLCPSGGEVSEELSLKLPPNVVEESARASVSVLGDILGSAMQNTQNLLQMPYGCGEQNMVLFAPNIYVLDYLNETQQLTPEVKSKAIGYLNTGYQRQLNYKHYDGSYSTFGERYGRNQGNTWLTAFVLKTFAQARAYIFIDEAHITQALIWLSQRQKDNGCFRSSGSLLNNAIKGGVEDEVTLSAYITIALLEIPLTVTHPVVRNALFCLESAWKTAQEGDHGSHVYTKALLAYAFALAGNQDKRKEVLKSLNEEAVKKDNSVHWERPQKPKAPVGHFYEPQAPSAEVEMTSYVLLAYLTAQPAPTSEDLTSATNIVKWITKQQNAQGGFSSTQDTVVALHALSKYGAATFTRTGKAAQVTIQSSGTFSSKFQVDNNNRLLLQQVSLPELPGEYSMKVTGEGCVYLQTSLKYNILPEKEEFPFALGVQTLPQTCDEPKAHTSFQISLSVSYTGSRSASNMAIVDVKMVSGFIPLKPTVKMLERSNHVSRTEVSSNHVLIYLDKVSNQTLSLFFTVLQDVPVRDLKPAIVKVYDYYETDEFAIAEYNAPCSKDLGNA |  |  |  |  |  |  | ≤ 50% |
